# Laboratory results reported in patent publication EP2681209B1, “COMPOUNDS AND METHODS FOR THE TREATMENT OF PAIN AND OTHER DISORDERS” (Aquilus Pharmaceuticals, Inc, priority 2011, dated 2012).
# What was measured:
# [1] = tested on: FVB male mice; test: Spinal nerve ligation (SNL) mouse model of neuropathic pain, intrathecal administration, von Frey tactile allodynia test; assay type: in vivo; conditions: for 50% paw withdrawal threshold, Mean, Day 0 Postoperative Baseline: group baseline after SNL injury, before first injection; for 50% paw withdrawal threshold, Mean, Day 0 Postoperative Baseline / 50% paw withdrawal threshold, Mean, Day(-2) Pre-operative Baseline: von Frey; for 50% paw withdrawal threshold, Mean, Day(-2) Pre-operative Baseline: group baseline prior to SNL injury and before any treatment; for 50% paw withdrawal threshold, Mean, Day 5 / 50% paw withdrawal threshold, Mean, Day 7 / 50% paw withdrawal threshold, Mean, Day 1: i.t. 10 µl/mouse daily injections day 1-6; for 50% paw withdrawal threshold, Mean, Day 1: testing 2hr after first i.t. injection
# Source text: (§1) To measure the neuropathic pain inhibiting affects of the MMP inhibitors of the present invention, the spinal nerve ligation (SNL) mouse model was run on a select number of compounds. This model which began with the work of Bennet and coworkers (Bennet, G.J. et al. Pain, 33, (1988), 87-107) and was optimized by Kim and Chung (Kim, S.H.; Chung, J.M. Pain, 50, (1992), 355-363) entails first, under magnification, the removal of one-third of the transverse process and then identifying and then dissecting free the L5 spinal nerve from the adjacent L4 spinal nerve in the mouse. The L5 spinal nerve is then tightly ligated using 6.0 silk suture. The nerve injury leads to hyperalgesia which manifests itself by enhanced responses to mechanical, heat and/or cooling stimuli. In this case, mechanical hyperalgesia is tested via Von Frey monofilaments in which filaments of varying thicknesses and bending force are individually applied to the plantar surface of the foot of the mouse. The threshold force necessary for paw withdrawal decreases dramatically after the nerve surgery. Potent pain inhibitors will reverse this affect resulting in greater force needing to be applied to cause the rodent paw to withdrawal.
# Following preoperative baseline (Day -2) paw threshold measurement, FVB male mice were subjected to SNL injury (Day -1). The next day (Day 0) after SNL surgery, the animals were tested for post-operative baseline threshold measurements for mechanical allodynia; and the animals were then randomly assigned to one of 3 treatment groups (see Table 3). Over the course of the study, paw withdrawal threshold of these animals was measured in response to mechanical stimulation using the von Frey Monofilament Test.
# To avoid systemic effects of the MMP inhibitors, the MMP inhibitors of the present invention were delivered into the cerebral spinal fluid (CSF) space around lumbosacral spinal cord via intrathecal (i.t.) administration, with the idea of targeting MMPs in the DRG, spinal cord, and spinal CSF. Intrathecal MMP inhibitor administration could then target not only spinal cord cells but also DRG cells. Each intrathecal (i.t.) injection was carried out according to the technique of Hylden and Wilcox (Hylden JL, Wilcox GL. Eur. J Pharmacol., 67, (1980), 313-6) 5.2 mg of each of the MMP inhibitors were first dissolved in 140 microliters of DMSO and then put into 1260 microliters of 0.5% hydroxypropyl cellulose (HPC) in water to make a fine suspension composed of compound in 10%DMSO-0.5% hydroxypropyl cellulose. 10 microliters of the mixture was injected into the intrathecal space of male FVB mice (weighing 22-25 grams each and obtained from the Jackson Laboratories, Bar Harbor, Me), by lumbar puncture in a volume of 10 µl/mouse using a Hamilton microsyringe via a 30 gauge needle inserted between lumbar vertebrae 5 and 6. In brief, each animal was held firmly by the pelvic girdle in one hand, while the needle was inserted into the tissue on the right side of the L5 or L6 spinous process. The needle was moved forward and slipped into the groove between the spinous process and transverse process and gently moved forward to the intervertebral space at ∼10° angle. As the needle was inserted (∼0.5 cm) within the vertebral column a tail flick was evident, and the solution was then injected. Table 3. Animal i.t. Treatment Groups & Compounds Tested
# Tactile Allodynia Test. Mechanical allodynia was measured using the calibrated von Frey filaments (Semmes-Weinstein monofilaments; Stoelting, Wood Dale, IL, U.S.A.). The plantar surface of the left injured paw of each animal was tested as described by Chaplan et al. (Journal of Neuroscience Methods, 53, (1994), 55-63). […]
# [2] = tested on: FVB male mice; test: Spinal nerve ligation (SNL) mouse model of neuropathic pain, intraperitoneal administration, von Frey tactile allodynia test; assay type: in vivo; conditions: for 50% paw withdrawal threshold, Mean, Day 1 / 50% paw withdrawal threshold, Mean, Day 2 / 50% paw withdrawal threshold, Mean, Day 5 / 50% paw withdrawal threshold, Mean, Day 6 / 50% paw withdrawal threshold, Mean, Day 7: IP 100 µl/mouse (approx. 3.3mg/Kg) daily injections day 1-5; for 50% paw withdrawal threshold, Mean, Day 0 Postoperative Baseline: group baseline after SNL injury, before first IP injection, von Frey
# Source text: as §1
# Tactile Allodynia Test. Mechanical allodynia was measured using the calibrated von Frey filaments (Semmes-Weinstein monofilaments; Stoelting, Wood Dale, IL, U.S.A.). The plantar surface of the left injured paw of each animal was tested as described by Chaplan et al. (Journal of Neuroscience Methods, 53, (1994), 55-63). The Fifty percent paw withdrawal threshold response was determined by sequentially increasing or decreasing the stimulus strength according to the "up-down method" of Dixon (Annual Review Pharmacology Toxicology, 20, (1980), 441-462). For mice, […] von Frey filaments were used, with approximately equal logarithmic incremental bending forces (von Frey number: 1.65, 2.36, 2.44, 2.83, 3.22, 3.61, 3.84, 4.08, and 4.17; equivalent to 0.005, 0.02, 0.03, 0.07, 0.17, 0.41, 0.69, 1.20, and 1.48g force, respectively).
# Prior to testing, each animal was placed in a suspended clear plastic chamber with a wire mesh bottom and acclimated for 15 minutes. Testing was initiated with the 0.07 g (handle marking of 2.83) applied perpendicularly to the plantar surface of the affected hind paw; each filament was applied with enough pressure to cause a buckle effect. The absence of a paw lifting/withdrawal response after 6 s prompted the use of the next higher weight filament. Paw withdrawal, indicating a positive response, prompted the use of a weaker filament. After the initial positive response (i.e., paw withdrawal), the testing continued for four additional measurements, and was used to calculate the response threshold. Four consecutive positive responses received a score of 0.001 g, and five consecutive negative responses (i.e., no paw withdrawal) received a score of 1.5 g.
# Analyses for Tactile Allodynia Testing. The 50% paw withdrawal threshold was calculated (PWT; Luo and Calcutt, J. Pharmacology Experimental Therapeutics, 303(3), (2002), 1199-1205; Chaplan et al. Journal of Neuroscience Methods, 53, (1994), 55-63) using the formula: 10(Xf + κδ)/10,000 [formula] where Xf is the final von Frey filament used (log units), κ is a value that analyzes the response pattern (taken from the table published by Chaplan et al., 1994), and δ is the mean difference between stimuli (log units).
# Except for the mode of administration, number of mice/group and the number of injections and amount per injection of compound given, the rest of the study was done in the same manner (in regards to the surgeries and tactile allodynia testing and analysis) as Experiment 110. 3.2 mg of each of the MMP inhibitors #5 and #10 were dissolved in 320 microliters of DMSO. To the solution was then added 32 microliters of Tween 80, followed by 2850 microliters of phosphate buffered saline (PBS). This gave a final concentration of 10% DMSO, 1% Tween and 1mg/ml compound. […]
SMILES,"50% paw withdrawal threshold, Mean, Day 0 Postoperative Baseline [1]","50% paw withdrawal threshold, Mean, Day(-2) Pre-operative Baseline [1]","50% paw withdrawal threshold, Mean, Day 5 [1]","50% paw withdrawal threshold, Mean, Day 7 [1]","50% paw withdrawal threshold, Mean, Day 1 [1]","reversal of allodynia ([1]; i.t. administration, as compared to vehicle and compound #5)","50% paw withdrawal threshold, Mean, Day 1 [2]","50% paw withdrawal threshold, Mean, Day 2 [2]","50% paw withdrawal threshold, Mean, Day 5 [2]","50% paw withdrawal threshold, Mean, Day 6 [2]","50% paw withdrawal threshold, Mean, Day 7 [2]","50% paw withdrawal threshold, Mean, Day 0 Postoperative Baseline [2]","reversal of mechanical alodynia ([2]; i.p. administration, by day 5)"
"[2H]C([2H])([2H])c1ccc(C#Cc2ccc(S(=O)(=O)N[C@H](Cc3c[nH]c4ccccc34)C(=O)O)s2)cc1 [Compound 10, (R)-3-(1H-Indol-3-yl)-2-[5-(4-trideuteromethyl-phenylethynyl)-thiophene-2-sulfonylamino]-propionic acid-(D3, 98%)]",0.077 g,1.268 g,0.320 g,1.024 g,0.321 g,almost complete reversal of allodynia,0.170 g,0.350 g,1.470 g,0.867 g,0.250 g,0.096 g,complete reversal of mechanical alodynia by day 5
"Cc1ccc(C#Cc2ccc(S(=O)(=O)N[C@H](Cc3c[nH]c4ccccc34)C(=O)O)s2)cc1 [Compound 5, (R)-3-(1H-Indol-3-yl)-2-(5-p-tolylethynyl-thiophene-2-sulfonylamino)-propionic acid]",0.050 g,1.265 g,0.079 g,0.190 g,0.098 g,,0.078 g,0.117 g,0.238 g,0.099 g,0.128 g,0.046 g,
